Tested on: GST-RXR197-462 interaction with in vitro translated TBP
Assay: GST pull-down RXR-TBP interaction assay in vitro
Format: binding, human
Settings: 1.0 μM 9-cis retinoic acid in all buffers; quantitated by phosphorimaging
Excerpt: GST-RXR197-462 was constructed by PCR amplification of the appropriate sequences from human RXRα. The amplification products were cloned into EcoRI-BamHI digested pGEX2TK. All PCR-derived constructs were verified by sequencing. The plasmid pGEX-TBP was the kind gift of Dr. I. Verma (Salk Institute; see Kerr et al., in Nature 365:412-419 (1993)). Mammalian expression constructs expressing the ligand biding domains of human RXRα, human RARα and human TRβ have been described elsewhere (Forman et al., Cell 81:541-550 (1995)).
GST-fusion proteins were induced, solubilized and bound to glutathione beads following the manufacturer's procedures (LKB-Pharmacia). After binding to glutathione beads, 15 μl of the suspension was incubated with 1 to 2 μl of the appropriate ^35 S-labeled in vitro translated protein for 1 hour in 500 μl of NETN (20 mM Tris-HC1, pH 7.5, 100 mM KC1, 0.7 mM EDTA, 0.5% NP40, 1 mM PMSF). Following incubation, the beads were washed three times with NETN. […]
Thus GST pull-down experiments were carried out as follows. TBP was in vitro transcribed and translated as described above, and incubated with equal amounts of immobilized GST-RXR197-462 or GST-RXR-E453K/E456K) as determined by coomassie stained gels. […] Little or no interaction between TBP and GST alone is detected under these conditions.

For `CC1=C(/C=C/C(C)=C\C=C\C(C)=C\C(=O)O)C(C)(C)CCC1` [9-cis retinoic acid], which “stimulation of the RXR-TBP interaction in vitro by addition of ligand” value is on record?
Its value is 3-5 fold.

— patent publication US5906920A, “Methods for the detection of ligands for retinoid X receptors” (The Salk Institute for Biological Studies, priority 1995, dated 1999)
